Data on 12 compounds can be found in patent publication US5064852A, “Indolinone derivatives” (Pfizer Inc., priority 1990, dated 1991).

The target in one experiment is T1, aldose reductase (Homo sapiens, UniProt P15121).
T1 construct: partially purified aldose reductase enzyme obtained from human placenta; from tissue; host or cells: human placenta
Put plainly: inhibition of aldose reductase enzyme activity (procedure of S. Hayman et al. as modified by K. Sestanj et al.). The class given is biochemical. As to conditions: for inhibition at 10 µM: 10^-5 M, partially purified aldose reductase from human placenta; for aldose reductase inhibitor potency (in words): no concentration given. The method, then:
(§1) The activity of the compounds of the present invention, as agents for the control of chronic diabetic complications, is determined by their ability to successfully pass one or more of the following standard biological or pharmacological tests, viz., (1) measuring their ability to inhibit the enzyme activity of isolated aldose reductase; (2) measuring their ability to reduce or inhibit sorbitol accumulation in the sciatic nerve of acutely streptozotocinized (i.e., diabetic) rats; (3) measuring their ability to reverse already-elevated sorbitol levels in the sciatic nerve and lens of chronic streptozotocin-induced diabetic rats; (4) measuring their ability to prevent or inhibit galactitol formation in the lens of acutely galactosemic rats, and (5) measuring their ability to delay cataract formation and reduce the severity of lens opacities in chronic galactosemic rats.
The following oxindole-1-alkanoic acid final products of Examples 1-12, respectively, were tested at a concentration level of 10^-5 M for their ability to reduce or inhibit aldose reductase enzyme activity via the procedure of S. Hayman et al., as described in the Journal of Biological Chemistry, Vol. 240, p. 877 (1965) and as modified by K. Sestanj et al. in U.S. Pat. No. 3,821,383. In every case, the substrate employed was partially purified aldose reductase enzyme obtained from human placenta.

For experiment [1], the system named is sorbitol levels in diabetic rats. As to the kind of experiment: inhibition of sorbitol formation in diabetic rats, oral route. The class given is in vivo, rat. The following applies: dose levels ranging from 0.75 mg./kg. to 20 mg./kg.
Text: As previously indicated, the 3-substituted 2-oxo-indoline-1-alkanoic acid compounds of this invention are readily adapted to therapeutic use as aldose reductase inhibitors for the control of chronic diabetic complications, in view of their ability to reduce lens sorbitol levels in diabetic subjects to a statistically significant degree. […] Furthermore, the herein described compounds of this invention can be administered by either the oral or parenteral routes of administration. […]
as §1

Usually inhibition stands for the change of the read-out against control, counted positive when it falls. Lower therefore signals a weak effect. With `CC(C(=O)O)N1C(=O)C(Cc2ccc(Cl)c(Cl)c2)c2ccccc21` (stereo not drawn) [Example 6, 3-(3,4-dichlorobenzyl)-2-oxo-indoline-1-(α-methyl)acetic acid], the inhibition at 10 µM on aldose reductase is 25%. In turn, `O=C(O)CN1C(=O)C2(Cc3ccc(Cl)cc3C2)c2ccccc21` (stereo not drawn) [Example 9, 5(6)-chloro-1,2-dihydro-spiro-inden[2,3']indolin-2'-one-1'-acetic acid] came in with an inhibition at 10 µM against aldose reductase of 71%. Same read-out and setting: the figure for `O=C(O)CN1C(=O)C2(Cc3ccccc3C2)c2ccccc21` [Example 8, 1,2-dihydro-spiro-inden[2,3']indolin-2'-one-1'-acetic acid] is 66%. As for `COc1ccc2c(c1)N(CC(=O)O)C(=O)C2Cc1ccc(Cl)c(Cl)c1` (stereo not drawn) [Example 5, 3-(3,4-dichlorobenzyl)-6-methoxy-2-oxo-indoline-1-acetic acid], at aldose reductase, the inhibition at 10 µM came out at 81% and the “aldose reductase inhibitor potency (in words)” value is “highly potent”. Turning to `O=C(O)CN1C(=O)C(Cc2ccc(Cl)c(Cl)c2)c2ccc(O)cc21` (stereo not drawn) [Example 12, 3-(3,4-dichlorobenzyl)-6-hydroxy-2-oxo-indoline-1-acetic acid], on aldose reductase, at 10 µM the inhibition was 79% and the “aldose reductase inhibitor potency (in words)” value is reported as “highly potent”. Compound `CC(c1ccc(Cl)c(Cl)c1)C1(C)C(=O)N(CC(=O)O)c2ccccc21` (stereo not drawn) [Example 11, 3-(3,4-dichloro-α-methylbenzyl)-3-methyl-2-oxo-indoline-1-acetic acid] showed an inhibition at 10 µM against aldose reductase of 72%.

`O=C(O)CN1C(=O)C(Cc2ccc(Cl)c(Cl)c2)c2ccc(F)cc21` (stereo not drawn) [Example 3, 3-(3,4-dichlorobenzyl)-6-fluoro-2-oxo-indoline-1-acetic acid] registered an inhibition at 10 µM at aldose reductase of 68%. `CC(c1ccc(Cl)c(Cl)c1)C1C(=O)N(CC(=O)O)c2ccccc21` (stereo not drawn) [Example 7, 3-(3,4-dichloro-α-methylbenzyl)-2-oxo-indoline-1-acetic acid]: at aldose reductase, the inhibition at 10 µM came to 94% and the “aldose reductase inhibitor potency (in words)” value is given as “highly potent”. Turning to `O=C(O)CN1C(=O)C(Cc2ccc(Cl)c(Cl)c2)c2ccccc21` (stereo not drawn) [Example 1, 3-(3,4-dichlorobenzyl)-2-oxo-indoline-1-acetic acid], on aldose reductase, at 10 µM the inhibition was 92% and the “aldose reductase inhibitor potency (in words)” value is on record as “highly potent”. The “inhibition of the formation of sorbitol levels in diabetic rats (in words)” value in experiment [1] is “significantly high degree”.

The compound `COc1cc2c(cc1OC)N(CC(=O)O)C(=O)C2Cc1ccc(Cl)c(Cl)c1` (stereo not drawn) [Example 4, 3-(3,4-dichlorobenzyl)-5,6-dimethoxy-2-oxo-indoline-1-acetic acid] returned an inhibition at 10 µM at aldose reductase of 55%.

With `O=C(O)CN1C(=O)C(Cc2ccc(Cl)c(Cl)c2)(Cc2ccc(Cl)c(Cl)c2)c2ccccc21` [Example 10, 3,3-di(3,4-dichlorobenzyl)-2-oxo-indoline-1-acetic acid], testing at 10 µM against aldose reductase gave an inhibition of 20%.

As to `O=C(O)CN1C(=O)C(Cc2ccc(Cl)c(Cl)c2)c2cc(Cl)ccc21` (stereo not drawn) [Example 2, 5-chloro-3-(3,4-dichlorobenzyl)-2-oxo-indoline-1-acetic acid], on aldose reductase, the inhibition at 10 µM came out at 88% and the “aldose reductase inhibitor potency (in words)” value is listed as “highly potent”.
